{"source": "patent US10307389B2", "about": "“Succinate prodrugs for use in the treatment of lactic acidosis or drug-induced side-effects due to Complex I-related impairment of mitochondrial oxidative phosphorylation” (NEUROVIVE PHARMACEUTICAL AB, priority 2014, dated 2019)", "key": {"[1]": {"conditions": "case report; cited from earlier work"}, "[2]": {"test_system": "permeabilized human peripheral blood mononuclear cells (PBMCs)", "test": "High-resolution respirometry of permeabilized human PBMCs", "conditions": "PBMC, read-out: IC50 for inhibition of OXPHOSCI capacity", "experimental": "Real-time respirometric measurements were performed using high-resolution oxygraphs (Oxygraph-2k, Oroboros Instruments, Innsbruck, Austria). The experimental conditions during the measurements were the following: 37° C., 2 mL active chamber volume and 750 rpm stirrer speed. […] For data recording, DatLab software version 4 and 5 were used (Oroboros Instruments, Innsbruck, Austria). Settings, daily calibration and instrumental background corrections were conducted according to the manufacturer's instructions. […] All measurements were performed at a platelet concentration of 200×10^6 cells per mL or a PBMC concentration of 5×10^6 cells per mL. […] Maximal uncoupled respiratory electron transport system capacity supported by convergent input through complex I and […] ) was evaluated by subsequent titration with the protonophore carbonylcyanide p-(trifluoromethoxy) phenylhydrazone (FCCP). […] Complex IV activity was calculated by subtracting the sodium azide value from the TMPD value. With exception of complex IV activity, all respiratory states were measured at steady-state and corrected for ROX. Complex IV activity was measured after ROX determination and not at steady-state."}, "[3]": {"conditions": "patients; cited from earlier work"}, "intact human platelets": {"test_system": "intact human platelets", "test": "Lactate production and pH of intact human platelets", "type": "cell-based", "conditions": "8 h; metformin 1 and 10 mM, phenformin 0.5 mM, rotenone 2 μM", "protocol": "Lactate levels are determined every 30 min using the Lactate Pro™ 2 blood lactate test meter (Arkray, Alere A B, Lidingö, Sweden) or similar types of measurements. Incubation is performed at 37° C. pH is measured at start, after 4 and after 8 h (or more frequently) of incubation using a Standard pH Meter, e.g. PHM210 (Radiometer, Copenhagen, Denmark). Drug candidates are added to the assay from start or following 30-60 min at concentrations within the range 10 μM-5 mM. […] In order to evaluate the specificity of the drug candidate, it is also tested in combination with a down-stream inhibitor of respiration such as the complex III inhibitor Antimycin at 1 μg/mL, which should abolish the effect of the drug candidate and restore the production of lactate.\nIncubation was performed at 37° C. at a stirrer speed of 750 rpm, and pH was measured at start, after 4 and after 8 h of incubation (n=4) using a PHM210 Standard pH Meter (Radiometer, Copenhagen, Denmark)."}, "[4]": {"test_system": "permeabilized human platelets", "test": "cells", "protocol": "Lactate production of intact human platelets was determined in PBS containing 10 mM glucose.\nSubsequently the FADH2-linked substrate succinate (10 mM) was given to determine convergent complex I- and II-dependent OXPHOS capacity (OXPHOSCI+II). […] Finally, the artificial complex IV substrate N,N,N′,N′-tetramethyl-p-phenylenediamine dihydrochloride (TMPD, 0.5 mM) was added and the complex IV inhibitor sodium azide (10 mM) was given to measure complex IV activity and chemical background, respectively."}}}
{"smiles": "CN(C)C(=N)N=C(N)N", "note": "[Metformin]", "values": [{"measurement": "serum level in involuntary intoxication, prior to hemodialysis", "setting": "[1]", "value": "over 2 mM"}, {"measurement": "IC50", "setting": "[2]", "value": 450, "unit": "µM"}]}
{"smiles": "[H]/N=C(/N)N/C(=N/[H])NCCc1ccccc1", "note": "[Phenformin]", "values": [{"measurement": "incidence of lactic acidosis", "setting": "[3]", "value": "4 cases per 10000 treatment-years"}, {"measurement": "lactate production compared to control", "setting": "intact human platelets", "value": "significantly more lactate"}, {"measurement": "IC50", "setting": "[4]; Homo sapiens, Platelet, 10 min, read-out: IC50 for inhibition of OXPHOSCI capacity", "value": 58, "unit": "µM"}, {"measurement": "ETSCII capacity and complex IV activity", "setting": "[4]; permeabilized platelets, compared to controls", "value": "not ETSCII or respiration specific to complex IV"}, {"measurement": "potency of OXPHOSCI inhibition relative to metformin", "setting": "[4]; permeabilized platelets, phenformin vs metformin", "value": 20, "unit": "fold"}]}
